This data set is described as follows: Equilibrium solubility of (I) in 1-hexanol at different temperatures. It counts as physicochemical. The conditions noted are these: equilibrium solubility in 1-hexanol. The method, then:
The equilibrium solubility of (I) in 1-hexanol at different temperatures was determined using a double jacketed 750 mL crystallizer. A mixture of (I) and 1-hexanol in the crystallizer was heated to a target temperature and the equilibrium condition was allowed to establish at that temperature. Samples from the solid free mother liquor were drawn using a filter frit. The samples were analysed for (I) content.
The results are shown in […].1 and are plotted in FIG. 1.

Each structure is given as a SMILES string.

`CCCCCCOC(=O)c1ccccc1C(=O)c1ccc(N(CC)CC)cc1O` [(I), 2-(4′-Diethylamino-2′-hydroxybenzoyl)benzoic acid hexyl ester]: the “(I) concentration” value runs as follows: (0 °C) 3.8%; (4 °C) 4.3%; (7 °C) 5.4%; (8 °C) 5.3%; (12 °C) 6.2%; (13.7 °C) 8.6%. Also, the “(I) concentration” value reads like this: (16 °C) 7.6%; (20 °C) 8.8%; (25 °C) 12.3%; (28.3 °C) 17.6%; (30 °C) 19.0%; (35 °C) 40.0%. In addition, the “(I) concentration” value (−0.9 °C) is given as 3.4%.

The record behind these values is patent US20240025841A1, “METHOD FOR OBTAINING CRYSTALLINE DIETHYLAMINO HYDROXYBENZOYL HEXYL BENZOATE” (BASF SE, priority 2020, published 2024).
